Laboratory results reported in the supplement of paper PMC10307832.

Key:
Assay in all cases: relative viability (nuclei count vs DMSO), 5 days (fraction); higher = more cells survive
BEN = test system: BEN
In short: (§1)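 Five library-drug doses in √10 steps were combined with a fixed anchor-drug dose, or a single drug was given alone, by pin tool to lung cancer cell lines in 1536-well plates the day after seeding. Nuclei were stained and counted after 5 days. Relative viability is the nuclei count in treated wells over that in vehicle wells, taken as the median of duplicate plates.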

EKVX = test system: EKVX
In short: as §1

HARA = test system: HARA
In short: as §1

HCC-366 = test system: HCC-366
In short: as §1

HCC-827 = test system: HCC-827
In short: as §1

LC-2-ad = test system: LC-2-ad
In short: as §1

LOU-NH91 = test system: LOU-NH91
In short: as §1

NCI-H1355 = test system: NCI-H1355
In short: as §1

NCI-H1395 = test system: NCI-H1395
In short: as §1

NCI-H1437 = test system: NCI-H1437
In short: as §1

NCI-H1734 = test system: NCI-H1734
In short: as §1

NCI-H1792 = test system: NCI-H1792
In short: as §1

NCI-H2009 = test system: NCI-H2009
In short: as §1

NCI-H2087 = test system: NCI-H2087
In short: as §1

NCI-H2170 = test system: NCI-H2170
In short: as §1

NCI-H2228 = test system: NCI-H2228
In short: as §1

NCI-H2342 = test system: NCI-H2342
In short: as §1

NCI-H2405 = test system: NCI-H2405
In short: as §1

NCI-H596 = test system: NCI-H596
In short: as §1

NCI-H647 = test system: NCI-H647
In short: as §1

NCI-H661 = test system: NCI-H661
In short: as §1

SK-LU-1 = test system: SK-LU-1
In short: as §1

SK-MES-1 = test system: SK-MES-1
In short: as §1

With O=C(O)c1ccc(-c2c[nH]c3ncc(-c4ccccc4)cc23)cc1C1CCCC1 + COc1cccc2cc(-c3nc([C@H]4CC[C@H](C(=O)O)CC4)n4ncnc(N)c34)[nH]c12 [OSI-027] (partner 0.5 µM) the relative viability (BEN; first compound 0.04 µM) was 0.329, the relative viability (BEN; first compound 0.1265 µM) was 0.269 and the relative viability (BEN; first compound 0.4 µM) was 0.307. It also gave a relative viability (BEN; first compound 1.265 µM) of 0.284, a relative viability (EKVX; first compound 0.04 µM) of 0.736 and a relative viability (EKVX; first compound 0.1265 µM) of 0.828. It also gave a relative viability (EKVX; first compound 0.4 µM) of 0.727, a relative viability (EKVX; first compound 1.265 µM) of 0.587 and a relative viability (HARA; first compound 0.04 µM) of 0.463. The relative viability (HARA; first compound 0.1265 µM) was 0.733, the relative viability (HARA; first compound 0.4 µM) was 0.55 and the relative viability (HARA; first compound 1.265 µM) was 0.591. The relative viability (HCC-366; first compound 0.04 µM) was 1.17, the relative viability (HCC-366; first compound 0.1265 µM) was 0.849 and the relative viability (HCC-366; first compound 0.4 µM) was 0.966. For the same compound, the relative viability (HCC-366; first compound 1.265 µM) was 0.994, the relative viability (HCC-827; first compound 0.04 µM) was 0.65 and the relative viability (HCC-827; first compound 0.1265 µM) was 0.81. It also gave a relative viability (HCC-827; first compound 0.4 µM) of 0.725, a relative viability (HCC-827; first compound 1.265 µM) of 0.77 and a relative viability (LC-2-ad; first compound 0.04 µM) of 0.805. It also gave a relative viability (LC-2-ad; first compound 0.1265 µM) of 0.905, a relative viability (LC-2-ad; first compound 0.4 µM) of 0.757 and a relative viability (LC-2-ad; first compound 1.265 µM) of 0.68. For the same compound, the relative viability (LOU-NH91; first compound 0.04 µM) was 0.743, the relative viability (LOU-NH91; first compound 0.1265 µM) was 0.824 and the relative viability (LOU-NH91; first compound 0.4 µM) was 0.733. The relative viability (LOU-NH91; first compound 1.265 µM) was 0.73, the relative viability (NCI-H1355; first compound 0.04 µM) was 0.43 and the relative viability (NCI-H1355; first compound 0.1265 µM) was 0.47. It also gave a relative viability (NCI-H1355; first compound 0.4 µM) of 0.371, a relative viability (NCI-H1355; first compound 1.265 µM) of 0.379 and a relative viability (NCI-H1395; first compound 0.04 µM) of 0.627. It also gave a relative viability (NCI-H1395; first compound 0.1265 µM) of 0.773, a relative viability (NCI-H1395; first compound 0.4 µM) of 0.516 and a relative viability (NCI-H1395; first compound 1.265 µM) of 0.537. It also gave a relative viability (NCI-H1437; first compound 0.04 µM) of 0.898, a relative viability (NCI-H1437; first compound 0.1265 µM) of 0.926 and a relative viability (NCI-H1437; first compound 0.4 µM) of 1.01. It also gave a relative viability (NCI-H1437; first compound 1.265 µM) of 0.565, a relative viability (NCI-H1734; first compound 0.04 µM) of 0.621 and a relative viability (NCI-H1734; first compound 0.1265 µM) of 0.701. The relative viability (NCI-H1734; first compound 0.4 µM) was 0.549, the relative viability (NCI-H1734; first compound 1.265 µM) was 0.512 and the relative viability (NCI-H1792; first compound 0.1265 µM) was 0.908. The relative viability (NCI-H1792; first compound 0.4 µM) was 0.698, the relative viability (NCI-H1792; first compound 1.265 µM) was 0.696 and the relative viability (NCI-H2009; first compound 0.04 µM) was 0.69. The relative viability (NCI-H2009; first compound 0.1265 µM) was 0.687, the relative viability (NCI-H2009; first compound 0.4 µM) was 0.648 and the relative viability (NCI-H2009; first compound 1.265 µM) was 0.549. It also gave a relative viability (NCI-H2087; first compound 0.04 µM) of 0.563, a relative viability (NCI-H2087; first compound 0.1265 µM) of 0.673 and a relative viability (NCI-H2087; first compound 0.4 µM) of 0.416. For the same compound, the relative viability (NCI-H2087; first compound 1.265 µM) was 0.47, the relative viability (NCI-H2170; first compound 0.04 µM) was 0.734 and the relative viability (NCI-H2170; first compound 0.1265 µM) was 0.685. The relative viability (NCI-H2170; first compound 0.4 µM) was 0.703, the relative viability (NCI-H2170; first compound 1.265 µM) was 0.676 and the relative viability (NCI-H2228; first compound 0.04 µM) was 0.557. The relative viability (NCI-H2228; first compound 0.1265 µM) was 0.568, the relative viability (NCI-H2228; first compound 0.4 µM) was 0.446 and the relative viability (NCI-H2228; first compound 1.265 µM) was 0.355. For the same compound, the relative viability (NCI-H2342; first compound 0.04 µM) was 0.489, the relative viability (NCI-H2342; first compound 0.1265 µM) was 0.744 and the relative viability (NCI-H2342; first compound 0.4 µM) was 0.748. The relative viability (NCI-H2342; first compound 1.265 µM) was 0.646, the relative viability (NCI-H2405; first compound 0.04 µM) was 0.653 and the relative viability (NCI-H2405; first compound 0.1265 µM) was 0.626. It also gave a relative viability (NCI-H2405; first compound 0.4 µM) of 0.617, a relative viability (NCI-H2405; first compound 1.265 µM) of 0.605 and a relative viability (NCI-H596; first compound 0.04 µM) of 0.728. For the same compound, the relative viability (NCI-H596; first compound 0.1265 µM) was 0.733, the relative viability (NCI-H596; first compound 0.4 µM) was 0.833 and the relative viability (NCI-H596; first compound 1.265 µM) was 0.654. It also gave a relative viability (NCI-H647; first compound 0.04 µM) of 0.701, a relative viability (NCI-H647; first compound 0.1265 µM) of 0.716 and a relative viability (NCI-H647; first compound 0.4 µM) of 0.669. It also gave a relative viability (NCI-H647; first compound 1.265 µM) of 0.574, a relative viability (NCI-H661; first compound 0.04 µM) of 0.766 and a relative viability (NCI-H661; first compound 0.4 µM) of 0.718. It also gave a relative viability (NCI-H661; first compound 1.265 µM) of 0.734, a relative viability (SK-LU-1; first compound 0.04 µM) of 0.329 and a relative viability (SK-LU-1; first compound 0.1265 µM) of 0.391. The relative viability (SK-LU-1; first compound 0.4 µM) was 0.324, the relative viability (SK-LU-1; first compound 1.265 µM) was 0.274 and the relative viability (SK-MES-1; first compound 0.04 µM) was 0.647. For the same compound, the relative viability (SK-MES-1; first compound 0.1265 µM) was 0.648, the relative viability (SK-MES-1; first compound 0.4 µM) was 0.622 and the relative viability (SK-MES-1; first compound 1.265 µM) was 0.41.
